In patent publication US10071957B2, “N-substituted benzamides and methods of use thereof” (GENENTECH, INC., priority 2012, dated 2018) one finds IC50 data, which are given here for 28 molecules.

For this experiment, the target named is hNaV1.7 (Homo sapiens (Human), UniProt Q15858). As to the kind of experiment: Competitive binding of tritiated compound to membranes from cells expressing hNav1.7 and the β1 subunit. Conditions: 100 pM [3H]compound, 18 h, room temperature; read-out: NaV1.7 395 Membrane Binding IC50. On the procedure:
Tritiated compound binding to membranes isolated from cells that heterologously express hNav1.7 and the β1 subunit
Preparation of membranes containing recombinantly expressed sodium channels: Frozen recombinant cell pellets were thawed on ice and diluted to 4 times the cell pellet weight with ice cold 50 mM Tris HCl, pH 7.4 buffer. The cell suspensions were homogenized on ice using a motorized glass dounce homogeniser. Homogenates were further diluted 8.4 times with ice cold 50 mM Tris HCl, pH 7.4 buffer and then centrifuged at 200×g at 4° C. for 15 min. The supernatants were collected and centrifuged at 10000×g at 4° C. for 50 min. The pellets were then re-suspended in 100 mM NaCl, 20 mM Tris HCl, pH 7.4 buffer containing 1% v/v protease inhibitors (Calbiochem) and re-homogenized on ice. The homogenized membranes were then processed through a syringe equipped with a 26 gauge needle. Protein concentrations were determined by Bradford Assay and the membranes were stored at −80° C.
Radioligand Binding Studies: Saturation experiments. A representative compound of formula (I) was tritiated. Three tritiums were incorporated in place of methyl hydrogens to generate [^3H]compound. Binding of this radioligand was performed in 5 mL borosilicate glass test tubes at room temperature. Binding was initiated by adding membranes to increasing concentrations of [^3H]compound in 100 mM NaCl, 20 mM Tris HCl, pH 7.4 buffer containing 0.01% w/v bovine serum albumin (BSA) for 18 h. Non-specific binding was determined in the presence of 1 μM unlabelled compound. After 18 h, the reactants were filtered through GF/C glass fiber filters presoaked in 0.5% w/v polyethylene imine. Filters were washed with 15 mL ice cold 100 mM NaCl, 20 mM Tris HCl, pH 7.4 buffer containing 0.25% BSA to separate bound from free ligand. [^3H]compound bound to filters was quantified by liquid scintillation counting.
Competitive binding experiments. Binding reactions were performed in 96-well polypropylene plates at room temperature for 18 h. In 360 μL, membranes were incubated with 100 pM [^3H]compound and increasing concentrations of Test Compound. Non-specific binding was defined in the presence of 1 μM unlabelled compound. Reactions were transferred and filtered through 96-well glass fiber/C filter plates presoaked with 0.5% polyethylene imine. The filtered reactions were washed 5 times with 200 μL ice cold buffer containing 0.25% BSA. Bound radioactivity was determined by liquid scintillation counting.
Data Analysis: For saturation experiments, non-specific binding was subtracted from total binding to provide specific binding and these values were recalculated in terms of pmol ligand bound per mg protein. Saturation curves were constructed and dissociation constants were calculated using the single site ligand binding model: Beq=(Bmax*X)/(X+Kd), where Beq is the amount of ligand bound at equilibrium, Bmax is the maximum receptor density, Kd is the dissociation constant for the ligand, and X is the free ligand concentration. For competition studies percent inhibition was determined and IC50 values were calculated using a 4 parameter logistic model (% inhibition=(A+((B−A)/(1+((x/C)^D)))) using XLfit, where A and B are the maximal and minimum inhibition respectively, C is the IC50 concentration and D is the (Hill) slope.

hNaV1.7, sequence (Q15858 whole entry, looked up): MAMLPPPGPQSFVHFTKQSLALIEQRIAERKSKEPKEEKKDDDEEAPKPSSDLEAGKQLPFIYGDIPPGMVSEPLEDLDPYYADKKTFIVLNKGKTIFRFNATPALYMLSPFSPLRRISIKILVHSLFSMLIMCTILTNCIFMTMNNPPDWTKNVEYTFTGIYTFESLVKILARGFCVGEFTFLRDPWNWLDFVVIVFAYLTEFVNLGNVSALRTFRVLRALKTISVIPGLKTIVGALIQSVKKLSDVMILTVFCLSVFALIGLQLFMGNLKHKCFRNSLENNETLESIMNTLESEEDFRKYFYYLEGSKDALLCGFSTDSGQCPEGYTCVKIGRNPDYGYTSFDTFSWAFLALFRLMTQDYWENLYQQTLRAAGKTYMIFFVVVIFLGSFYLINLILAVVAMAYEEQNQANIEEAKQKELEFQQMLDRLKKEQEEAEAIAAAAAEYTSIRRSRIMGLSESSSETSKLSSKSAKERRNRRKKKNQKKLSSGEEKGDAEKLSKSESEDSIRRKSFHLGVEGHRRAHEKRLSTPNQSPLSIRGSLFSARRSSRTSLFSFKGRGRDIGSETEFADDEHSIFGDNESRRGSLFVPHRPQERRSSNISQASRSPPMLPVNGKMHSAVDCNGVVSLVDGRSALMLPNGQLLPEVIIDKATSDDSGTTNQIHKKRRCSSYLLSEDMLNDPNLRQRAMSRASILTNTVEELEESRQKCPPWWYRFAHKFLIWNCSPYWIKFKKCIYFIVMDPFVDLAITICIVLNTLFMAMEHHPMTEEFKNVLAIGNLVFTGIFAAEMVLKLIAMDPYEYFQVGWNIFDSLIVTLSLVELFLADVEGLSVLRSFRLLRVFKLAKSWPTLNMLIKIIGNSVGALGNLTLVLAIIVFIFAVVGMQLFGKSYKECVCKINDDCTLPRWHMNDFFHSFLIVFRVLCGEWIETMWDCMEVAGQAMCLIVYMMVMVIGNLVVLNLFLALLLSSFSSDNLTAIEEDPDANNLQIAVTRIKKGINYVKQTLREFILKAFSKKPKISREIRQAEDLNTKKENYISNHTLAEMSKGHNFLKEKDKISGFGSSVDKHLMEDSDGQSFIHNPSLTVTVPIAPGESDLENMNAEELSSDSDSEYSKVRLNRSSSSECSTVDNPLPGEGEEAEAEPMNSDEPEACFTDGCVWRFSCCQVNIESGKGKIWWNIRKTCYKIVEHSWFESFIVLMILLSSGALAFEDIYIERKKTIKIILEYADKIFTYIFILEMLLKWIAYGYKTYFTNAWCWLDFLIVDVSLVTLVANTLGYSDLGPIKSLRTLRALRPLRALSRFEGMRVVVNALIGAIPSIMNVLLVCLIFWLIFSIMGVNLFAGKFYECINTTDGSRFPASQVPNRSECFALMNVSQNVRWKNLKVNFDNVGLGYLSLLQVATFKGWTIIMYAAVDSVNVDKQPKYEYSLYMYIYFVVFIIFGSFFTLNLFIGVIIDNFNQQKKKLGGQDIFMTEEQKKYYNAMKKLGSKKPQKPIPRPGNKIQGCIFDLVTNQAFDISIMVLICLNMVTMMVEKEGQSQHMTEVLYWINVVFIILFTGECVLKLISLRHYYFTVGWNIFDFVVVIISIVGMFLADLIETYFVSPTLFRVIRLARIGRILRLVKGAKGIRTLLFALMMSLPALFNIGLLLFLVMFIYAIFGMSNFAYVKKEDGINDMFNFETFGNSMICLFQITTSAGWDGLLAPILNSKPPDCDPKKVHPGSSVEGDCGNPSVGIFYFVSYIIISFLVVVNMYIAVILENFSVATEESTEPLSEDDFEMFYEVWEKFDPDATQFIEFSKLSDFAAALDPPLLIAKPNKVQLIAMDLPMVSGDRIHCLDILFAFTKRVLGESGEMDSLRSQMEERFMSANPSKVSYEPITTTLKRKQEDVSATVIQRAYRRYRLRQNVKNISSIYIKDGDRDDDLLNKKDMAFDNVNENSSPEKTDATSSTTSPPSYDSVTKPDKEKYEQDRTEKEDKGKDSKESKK
hNaV1.7, sequence (Q07699 whole entry partner, looked up): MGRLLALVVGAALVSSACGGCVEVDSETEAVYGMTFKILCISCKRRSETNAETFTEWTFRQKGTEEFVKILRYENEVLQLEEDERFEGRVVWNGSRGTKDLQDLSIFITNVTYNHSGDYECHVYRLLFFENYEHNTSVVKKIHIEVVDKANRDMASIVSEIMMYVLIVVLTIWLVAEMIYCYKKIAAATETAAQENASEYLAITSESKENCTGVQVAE

As a reminder, the IC50 is the concentration that inhibits the measured activity by half. Consider `CCCCN(CCCC)S(=O)(=O)NC(=O)c1cc(Cl)c(Oc2cnc(OCC(C)C)c(Cl)c2)cc1F` [Preparation 13, 5-chloro-4-((5-chloro-6-isobutoxypyridin-3-yl)oxy)-N-(N,N-dibutylsulfamoyl)-2-fluorobenzamide], for which the IC50 was 3640 nM. Then `CC(C)COc1ncc(Oc2cc(F)c(C(=O)NS(=O)(=O)NCc3ccccc3)cc2Cl)cc1Cl` [Preparation 18, N-(N-benzyl-sulfamoyl)-5-chloro-4-((5-chloro-6-isobutoxy-pyridin-3-yl)oxy)-2-fluorobenzamide], with 4180 nM; and `CC(C)COc1ncc(Oc2cc(F)c(C(=O)NS(=O)(=O)N(C)Cc3ccccc3)cc2Cl)cc1Cl` [Preparation 19, N-(N-benzyl-N-methylsulfamoyl)-5-chloro-4-((5-chloro-6-isobutoxypyridin-3-yl)oxy)-2-fluoro-benzamide], with 4440 nM. The figure for `CC(C)COc1ncc(Oc2cc(F)c(C(=O)NS(=O)(=O)NCc3cccnc3)cc2Cl)cc1Cl` [Preparation 22, 5-chloro-4-((5-chloro-6-isobutoxypyridin-3-yl)oxy)-2-fluoro-N-(N-(pyridin-3-ylmethyl)sulfamoyl) benzamide 2,2,2-trifluoroacetate] is 3580 nM; for `CC(C)COc1ncc(Oc2cc(F)c(C(=O)NS(=O)(=O)NC(=O)OC(C)(C)C)cc2Cl)cc1Cl` [Preparation 29, tert-butyl N-(5-chloro-4-((5-chloro-6-isobutoxy-pyridin-3-yl)oxy)-2-fluorobenzoyl) sulfamoylcarbamate] it is 905 nM; for `CN(C)S(=O)(=O)NC(=O)c1cc(F)c(Oc2ccc(OC(F)(F)F)c(Cl)c2)cc1F` [Preparation 31, 4-(3-chloro-4-(tri-fluoromethoxy)phenoxy)-N-(N,N-dimethylsulfamoyl)-2,5-difluoro-benzamide] it is 860 nM. Consider `CNS(=O)(=O)NC(=O)c1cc(Cl)c(Oc2cnc(OCC(F)(F)C(F)F)c(Cl)c2)cc1F` [Preparation 33, 5-chloro-4-((5-chloro-6-(2,2,3,3-tetrafluoro-propoxy)pyridin-3-yl)oxy)-2-fluoro-N-(N-methylsulfamoyl) benzamide], for which the concentration for half-maximal inhibition (IC50) was 22.8 nM. The figure for `NS(=O)(=O)NC(=O)c1cc(Cl)c(Oc2cnc(Cl)c(Cl)c2)cc1F` [Preparation 34, 5-chloro-4-((5,6-dichloropyridin-3-yl)oxy)-2-fluoro-N-sulfamoylbenzamide] is 4680 nM; for `CN(C)S(=O)(=O)NC(=O)c1cc(Cl)c(Oc2cnc(Cl)c(Cl)c2)cc1F` [Preparation 35, 5-chloro-4-((5,6-dichloropyridin-3-yl)oxy)-N-(N,N-dimethylsulfamoyl)-2-fluorobenzamide] it is 665 nM; for `NS(=O)(=O)NC(=O)c1cc(Cl)c(COc2cnc(OCC(F)(F)C(F)F)c(Cl)c2)cc1F` [Preparation 36, 5-chloro-4-(((5-chloro-6-(2,2,3,3-tetrafluoropropoxy)pyridin-3-yl)oxy)methyl)-2-fluoro-N-sulfamoylbenzamide] it is 460 nM. Then `NS(=O)(=O)NC(=O)c1cc(Cl)c(Oc2cnc(OCC(F)(F)C(F)F)c(Cl)c2)cc1F` [Preparation 37, 5-chloro-4-((5-chloro-6-(2,2,3,3-tetrafluoro-propoxy)pyridin-3-yl)oxy)-2-fluoro-N-sulfamoylbenzamide], with 171 nM; and `CNS(=O)(=O)NC(=O)c1cc(Cl)c(Oc2cnc(Cl)c(Cl)c2)cc1F` [Preparation 38, 5-chloro-4-((5,6-dichloropyridin-3-yl)oxy)-2-fluoro-N-(N-methyl-sulfamoyl)benzamide], with 628 nM.

Turning to `CN(C)S(=O)(=O)NC(=O)c1cc(Cl)c(COc2cnc(OCC(F)(F)C(F)F)c(Cl)c2)cc1F` [Preparation 39, 5-chloro-4-(((5-chloro-6-(2,2,3,3-tetrafluoro-propoxy)pyridin-3-yl)oxy)methyl)-N-(N,N-dimethyl-sulfamoyl)-2-fluoro-benzamide], the IC50 worked out at 216 nM. Then `CC(C)COc1ncc(Oc2cc(F)c(C(=O)NS(=O)(=O)N(C)C)cc2Cl)cc1C(F)(F)F` [Preparation 40, 5-chloro-N-(N,N-dimethylsulfamoyl)-2-fluoro-4-((6-iso-butoxy-5-(trifluoro-methyl)pyridin-3-yl)oxy)benzamide], with 71 nM; and `CC(C)COc1ncc(Oc2cc(F)c(C(=O)NS(=O)(=O)N3CCN(C(=O)OC(C)(C)C)CC3)cc2Cl)cc1Cl` [Preparation 41, tert-butyl 4-(N-(5-chloro-4-((5-chloro-6-isobutoxy-pyridin-3-yl)oxy)-2-fluorobenzoyl)sulfamoyl)piperazine-1-carboxylate], with 3800 nM. On to `CC(C)COc1ncc(Oc2cc(F)c(C(=O)NS(=O)(=O)N3CCNCC3)cc2Cl)cc1Cl` [Preparation 42, 5-chloro-4-((5-chloro-6-isobutoxypyridin-3-yl)oxy)-2-fluoro-N-(piperazin-1-ylsulfonyl)benzamide], for which the half-maximal inhibitory concentration (IC50) worked out at 856 nM. Then `CN(C)S(=O)(=O)NC(=O)c1cc(Cl)c(Oc2ccc(C#N)cc2)cc1F` [Preparation 43, 5-chloro-4-(4-cyano-phenoxy)-N-(N,N-dimethylsulfamoyl)-2-fluorobenzamide], with 10000 nM; and `CN(C)S(=O)(=O)NC(=O)c1cc(Cl)c(Oc2ccc(-c3nccs3)cc2)cc1F` [Preparation 44, 5-chloro-N-(N,N-dimethylsulfamoyl)-2-fluoro-4-(4-(thiazol-2-yl)phenoxy) benzamide], with 869 nM; and `O=C(NS(=O)(=O)NC1CCC1)c1cc(Cl)c(Oc2ccc(OC(F)(F)F)c(Cl)c2)cc1F` [Preparation 45, 5-chloro-4-(3-chloro-4-(trifluoromethoxy)phenoxy)-N-(N-cyclobutylsulfamoyl)-2-fluorobenzamide], with 108 nM. On to `CC(C)COc1ncc(Oc2cc(F)c(C(=O)NS(=O)(=O)N3CCC3)cc2Cl)cc1Cl` [Preparation 46, N-(azetidin-1-ylsulfonyl)-5-chloro-4-((5-chloro-6-iso-butoxypyridin-3-yl)oxy)-2-fluorobenzamide], for which the IC50 was 9.2 nM. Then `CN(C)S(=O)(=O)NC(=O)c1cc(Cl)c(Oc2ccc3ccccc3c2)cc1F` [Preparation 47, 5-chloro-N-(N,N-dimethylsulfamoyl)-2-fluoro-4-(naphthalen-2-yloxy)benzamide], with 4070 nM; and `NS(=O)(=O)NC(=O)c1cc(Cl)c(Oc2ccc3ccccc3c2)cc1F` [Preparation 48, 5-chloro-2-fluoro-4-(naphthalen-2-yloxy)-N-sulfamoyl-benzamide], with 138 nM. Then `CN(C)S(=O)(=O)NC(=O)c1cc(Cl)c(Oc2ccc(F)c(F)c2)cc1F` [Preparation 49, 5-chloro-4-(3,4-difluorophenoxy)-N-(N,N-dimethyl-sulfamoyl)-2-fluorobenzamide], with 3470 nM; and `NS(=O)(=O)NC(=O)c1cc(Cl)c(Oc2ccc(F)c(F)c2)cc1F` [Preparation 50, 5-chloro-4-(3,4-difluorophenoxy)-2-fluoro-N-sulfamoylbenzamide], with 656 nM; and `CN(C)S(=O)(=O)NC(=O)c1cc(Cl)c(Oc2cccc3ccccc23)cc1F` [Preparation 52, 5-chloro-N-(N,N-dimethylsulfamoyl)-2-fluoro-4-(naphthalen-1-yloxy)benzamide], with 5200 nM. Then `NS(=O)(=O)NC(=O)c1cc(Cl)c(Oc2cccc3ccccc23)cc1F` [Preparation 53, 5-chloro-2-fluoro-4-(naphthalen-1-yloxy)-N-sulfamoylbenzamide], with 23000 nM; and `CN(C)S(=O)(=O)NC(=O)c1cc(Cl)c(Oc2cccc3[nH]ccc23)cc1F` [Preparation 55, 4-((1H-indol-4-yl)oxy)-5-chloro-N-(N,N-dimethyl-sulfamoyl)-2-fluoro-benzamide], with 20000 nM; and `CN(C)S(=O)(=O)NC(=O)c1cc(Cl)c(Oc2ccc3cc[nH]c3c2)cc1F` [Preparation 56, 4-((1H-indol-6-yl)oxy)-5-chloro-N-(N,N-dimethyl-sulfamoyl)-2-fluoro-benzamide], with 990 nM.
